“And” between values parts separate entries of the source, which are not always exact repeats. Equal values may be shown once.
Experiments:
[1] = Plasma concentration of active ingredient in patients, measured by HPLC (Example 3); format: in vivo, human
Experimental: To a total of 11 patients, a single dose of 2.0 mg, 4.0 mg, or 6.0 mg of tamibarotene was administered.
Moreover, to a total of 6 patients, repeated doses of 8.0 mg or 10.0 mg of tamibarotene were administered.
For the 2.0 mg dose, one tablet (2 mg of tamibarotene) was administered after breakfast using a tablet of 2 mg tamibarotene; for the 4.0 mg dose, one tablet (2 mg of tamibarotene) was administered after breakfast and one tablet (2 mg of tamibarotene) was administered after dinner; and for the 6.0 mg dose, two tablets (4 mg of tamibarotene) were administered after breakfast and one tablet (2 mg of tamibarotene) was administered after dinner.
For the 8.0 mg dose, two tablets (4 mg of tamibarotene) after breakfast and two tablets (4 mg of tamibarotene) after dinner were administered repeatedly for 35 to 46 days, using a tablet of 2 mg tamibarotene. For the 10.0 mg dose, three tablets (6 mg of tamibarotene) after breakfast and two tablets (4 mg of tamibarotene) after dinner were administered repeatedly for 34 to 59 days, using a tablet of 2 mg tamibarotene. […]

[2] = system: chronic graft versus host disease (chronic GVHD); experiment: Clinical study of efficacy and safety of tamibarotene for chronic GVHD (Examples 1 and 2); format: in vivo, human; settings: for Eyeball: subjects with improvement in Schirmer's test: out of the 18 subjects; for subjects for whom the overall judgment was PR: oral, start 4 mg per day, with PSL/steroid
Experimental: Tamibarotene was administered to a patient with chronic graft versus host disease (chronic GVHD) after allogeneic hematopoietic stem cell transplantation, and efficacy thereof was studied. Main selection criteria for subjects are as follows: • (A) An age is 18 years or older and younger than 85 years • (B) A Karnofsky performance status (KPS) is 60 or more • (C) A steroid treatment-refractory or steroid treatment-dependent patient who has started treatment with 0.5 mg/kg or more of PSL (prednisolone) (or received corresponding steroid treatment) as a first-line treatment, and who falls under any of the following (1) through (4): • (1) A patient who needs additional treatment because of exacerbation even after 1 mg/kg or more of PSL has been administered for 2 weeks; • (2) A patient who has not been ameliorated after 4 weeks of treatment, including administration of 0.5 mg/kg or more of PSL for 2 weeks, and needs additional treatment. • (3) A patient whose GVHD symptom has relapsed or worsened within a period in which the dose of the steroid was reduced • (4) A steroid treatment-dependent patient for whom a dose reduction from 10 mg/day (or corresponding steroid treatment) is difficult Tamibarotene was administered to 18 subjects. As the administration method, 2 mg tablets of tamibarotene were administered orally for 24 weeks. The administration was started with 2 doses (a 2 mg tablet, twice) after breakfast and dinner, i.e., 4 mg (equivalent to 3 mg/m^2) per day. PSL or steroid administration was also continued daily. 2 mg tablets of tamibarotene were administered orally for 24 weeks. Administration was started at 4 mg (equivalent to 3 mg/m^2) per day, i.e., twice daily after breakfast and dinner (one 2 mg tablet in each of the morning and evening). If an adverse event was mild (grade 0 to 1), the dose could be increased to 8 mg per day (two 2 mg tablets in each of the morning and evening) after 4 weeks of continuation (in a case of 6 mg per day, two 2 mg tablets were to be taken after breakfast and one 2 mg tablet after dinner). In a case of grade 2 for an unexpected adverse event (for which a causal relationship could not be ruled out), or grade 3 for an expected adverse event (for which a causal relationship could not be ruled out), the dose was reduced to 2 mg per day (one tablet once after breakfast), and administration was continued. Alternatively, after a 2-week drug holiday, administration was restarted at 2 mg per day and continued, after confirming that the adverse event had improved to a grade one level lower than that before the drug holiday. However, in regard to an abnormal liver function of grade 3, in a case of a patient who had grade 3 liver dysfunction due to chronic GVHD from before enrollment, administration could be continued without dose reduction or drug holiday, even if the abnormal liver function remained at grade 3. In a case where drug holidays and restarts were repeated with administration at 2 mg per day due to an adverse event, administration could be continued by reducing the dose to 2 mg on alternate days. The survival rate without treatment failure (death, relapse, implementation of additional treatment) at the end of tamibarotene administration (week 24), i.e., failure-free survival (FFS), was evaluated. In a case where additional treatment was implemented for chronic GVHD, such a case was considered treatment failure at that point in time. In regard to the additional treatment herein, a change in the steroid dose was not considered, but in a case where the dose was increased to an amount exceeding 1 mg/kg/day, it was considered that additional treatment had been implemented. [Table 1] For the skin, eyeball, and gastrointestinal tract, the NIH organ-specific scores described in Biol. Blood Marrow Transplant, 2005 11(12), 945-56 were used. For the skin, a therapeutic effect was further evaluated using a total skin score. In addition, the 15-point Schubert scale in Table 2 was used for the oral cavity. […]

[3] = week 12 of administration, 18 subjects
[4] = week 24, out of the 16 subjects
[5] = week 24 of administration, 5/18
[6] = week 24 of administration, 18 subjects

CC1(C)CCC(C)(C)c2cc(NC(=O)c3ccc(C(=O)O)cc3)ccc21 [tamibarotene, 4-[(5,6,7,8-tetrahydro-5,5,8,8-tetramethyl-2-naphthalenyl)carbamoyl]benzoic acid]
Plasma concentration ([1]; after 8 hours from a single dose of 2.0 mg, lowest concentration list, 480 min): 3.26 ng/mL
Plasma concentration ([1]; after 10 hours from a single dose of 4.0 mg, lowest concentration list, 600 min): 8.03 ng/mL and 7.01 ng/mL
Plasma concentration ([1]; after 24 hours from single dose of 6.0 mg, individual values, lowest concentration list, 1440 min): 1.08 ng/mL and 1.14 ng/mL and 2.50 ng/mL
Plasma concentration ([1]; after hours (figure not given) from repeated doses (46 days) of 8.0 mg, highest concentration list): 100.09 ng/mL
concentration at 4 h ([1]; human, plasma, po, 2 mg, after 4 hours from a single dose of 2.0 mg, lowest concentration list): 8.98 ng/mL
concentration at 8 h ([1]; human, plasma, po, 2 mg, after 8 hours from a single dose of 2.0 mg, lowest concentration list): 5.04 ng/mL
concentration at 10 h ([1]; human, plasma, po, 4 mg, after 10 hours from a single dose of 4.0 mg, lowest concentration list): 9.56 ng/mL
concentration at 4 h ([1]; human, plasma, po, 6 mg, after 4 hours from a single dose of 6.0 mg, highest concentration list): 80.2 ng/mL
concentration at 4 h ([1]; human, plasma, po, 6 mg, after 4 hours from repeated doses (47 days) of 6.0 mg, highest concentration list): 92.5 ng/mL
concentration at 6 h ([1]; human, plasma, po, 6 mg, after 6 hours from a single dose of 6.0 mg, lowest concentration list): 7.42 ng/mL
concentration at 10 h ([1]; human, plasma, po, 6 mg, after 10 hours from a single dose of 6.0 mg, lowest concentration list): 7.72 ng/mL
concentration at 4 h ([1]; human, plasma, po, 8 mg, after 4 hours from repeated doses (35 days) of 8.0 mg, highest concentration list): 84.6 ng/mL
concentration at 4 h ([1]; human, plasma, po, 8 mg, after 4 hours from repeated doses (46 days) of 8.0 mg, highest concentration list): 85.2 ng/mL
concentration at 24 h ([1]; human, plasma, po, 8 mg, after 24 hours from repeated doses (46 days) of 8.0 mg, lowest concentration list): 2.92 ng/mL
concentration at 2 h ([1]; human, plasma, po, 10 mg, after 2 hours from repeated doses (34 days) of 10.0 mg, highest concentration list): 88 ng/mL
concentration at 2 h ([1]; human, plasma, po, 10 mg, after 2 hours from repeated doses (58 days) of 10.0 mg, highest concentration list): 199 ng/mL
concentration at 2 h ([1]; human, plasma, po, 10 mg, after 2 hours from repeated doses (59 days) of 10.0 mg, highest concentration list): 119 ng/mL
concentration at 4 h ([1]; human, plasma, po, 10 mg, after 4 hours from repeated doses (34 days) of 10.0 mg, highest concentration list): 85.6 ng/mL
concentration at 4 h ([1]; human, plasma, po, 10 mg, after 4 hours from repeated doses (36 days) of 10.0 mg, highest concentration list): 161 ng/mL
concentration at 4 h ([1]; human, plasma, po, 10 mg, after 4 hours from repeated doses (58 days) of 10.0 mg, highest concentration list): 88.7 ng/mL
concentration at 4 h ([1]; human, plasma, po, 10 mg, after 4 hours from repeated doses (59 days) of 10.0 mg, highest concentration list): 82.1 ng/mL
concentration at 8 h ([1]; human, plasma, po, 10 mg, after 8 hours from repeated doses (36 days) of 10.0 mg, highest concentration list): 112 ng/mL
follow-up of single subjects whose overall judgment was PR ([2]; 2 years after the end of treatment, one subject per line): able to discontinue the administration of PSL and reduce the dose of FK506 at 2 years after the end of treatment without exacerbation of chronic GVHD
knee joint flexion ([2]; Case 1, start vs end of administration, 200 days, Fig. 1): notable improvement in knee joint flexion
knee joint extension ([2]; Case 1, start vs end of administration, 200 days, tamibarotene/prednisolone/tacrolimus 4 mg/15 mg/4 mg at start, Fig. 1): notable improvement in knee joint extension
cutis symptom on knee ([2]; Case 2, start vs end of administration, 137 days, Fig. 2): notable amelioration of pigmentation and skin sclerosis in the knee
cutis symptom on lower part of back ([2]; Case 2, start vs end of administration, 137 days, tamibarotene/predonine/tacrolimus 4 mg/11 mg/0.2 mg at start, Fig. 2): amelioration of pigmentation and skin sclerosis in the lower part of the lower back
oral cavity symptom ([2]; Case 3, start vs end of administration, 83 days, tamibarotene/prednisolone/tacrolimus 4 mg/10 mg/0.6 mg, Fig. 3): healing of ulcer and notable amelioration of erythema were seen in the oral cavity
response rate for each organ (Fig. 4), in words ([2]; all cases in Example 1): the effect was seen in chronic GVHD of the eyeball and liver in addition to the skin and the oral cavity, or chronic GVHD maintained without exacerbation
overall response rate ([2]; entire administered population, final analysis, NIH Consensus Development Project Criteria (2005), 6/18, 95% confidence interval 13.3% to 59.0%): 33.3%
overall response rate based on the NIH Consensus Development Project Criteria (2014) ([2]; entire administered population, sensitivity analysis, 7/18 cases, 95% confidence interval 17.3% to 64.3%): 38.9%
NIH response rate for the joints and fascia ([2]; human, in vivo): 11%
response rate for the lung function score ([2]; human, in vivo): unchanged
NIH response rate for the liver ([2]; influence of other diseases difficult to consider): 23%
Eyeball: subjects with improvement in Schirmer's test ([2]; left eye): 7 subjects
NIH response rate for the gastrointestinal tract ([2]; n=5): 20%
NIH response rate for the genitals ([2]; n=6): 17%
amelioration in the symptom after administration ([2]; patients in Examples, no amelioration before with various drugs): amelioration in the symptom was seen in all the patients
Eyeball: subjects with improvement in Schirmer's test ([2]; right eye): 5 subjects
Oral cavity: symptoms ([2]; several subjects): healing of ulcer and notable amelioration of erythema were seen in several subjects
Skin: symptoms ([2]; several subjects): notable amelioration of edema, skin sclerosis, pigmentation, or erythema in several subjects
range of joint motion ([2]; subjects in whom a therapeutic effect was confirmed): notable improvement in the range of joint motion
subjects for whom the overall judgment was SD [2, 3]: 7 subjects
subjects for whom the overall judgment was PR [2, 3]: 5 subjects
subjects in whom the dose of PSL could be reduced by 50% or more ([2]; week 24, compared with start of tamibarotene administration, 18 subjects): 3 subjects
subjects in whom the dose of PSL could be reduced ([2]; week 24, compared with start of treatment, 18 subjects): 7 subjects
Eyeball: NIH response rate ([2]; week 24, 14 subjects): 14%
Eyeball: subjects evaluated as CR ([2]; week 24, 14 subjects): No subject
Eyeball: subjects evaluated as PR ([2]; week 24, 14 subjects): two
Oral cavity: NIH response rate ([2]; week 24, 16 subjects): 25%
Oral cavity: subjects evaluated as CR ([2]; week 24, 16 subjects): Two
Oral cavity: subjects evaluated as PR ([2]; week 24, 16 subjects): two
Skin: NIH response rate ([2]; week 24, 16 subjects): 25%
Skin: subjects evaluated as CR ([2]; week 24, 16 subjects): One
Skin: subjects evaluated as PR ([2]; week 24, 16 subjects): three
Oral cavity: subjects with improved score on the 15-point Schubert scale [2, 4]: 10 subjects
Skin: subjects with improved total skin score [2, 4]: 8 subjects
failure-free survival (FFS) [2, 5]: 28%
response rate [2, 5]: 28%
subjects for whom the overall judgment was SD [2, 6]: 7 subjects
subjects for whom the overall judgment was PR [2, 6]: 5 subjects

Reference: patent EP4744657A1, “THERAPEUTIC AGENT FOR HUMAN GRAFT VERSUS HOST DISEASE AND COMBINATION THEREOF” (National University Corporation Okayama University, priority 2023, dated 2025)
